# Read-outs that look alike come from different tables or passages of the source. Bridge positions count the residues as written; N and C are the ends. Square brackets hold non-standard residues; d marks the D form. Peptide text beside a SMILES is read from it. Phe(4-NO2) = N[C@@H](Cc1ccc([N+](=O)[O-])cc1)C(=O)O; Phe(4-F) = N[C@@H](Cc1ccc(F)cc1)C(=O)O; Phe(4-Me) = Cc1ccc(C[C@H](N)C(=O)O)cc1; Nle = CCCC[C@H](N)C(=O)O
# What was measured:
# [1] = biological target: T1, human Kv1.3 voltage-gated K+ channel (Homo sapiens, UniProt P22001); test: cell-based; details: inhibition of thallium flux, CHO-DUKX cells with human Kv1.3; read-out: IC50
# T1 construct: host or cells: CHO-DUKX
# Rat whole blood = Rat whole blood (Rattus norvegicus, UniProt P15384)
# [2] = inhibition of IL-17A release, thapsigargin, 24 Hr, at least 2 replicates
# Sequence of Rat whole blood (P15384 whole entry): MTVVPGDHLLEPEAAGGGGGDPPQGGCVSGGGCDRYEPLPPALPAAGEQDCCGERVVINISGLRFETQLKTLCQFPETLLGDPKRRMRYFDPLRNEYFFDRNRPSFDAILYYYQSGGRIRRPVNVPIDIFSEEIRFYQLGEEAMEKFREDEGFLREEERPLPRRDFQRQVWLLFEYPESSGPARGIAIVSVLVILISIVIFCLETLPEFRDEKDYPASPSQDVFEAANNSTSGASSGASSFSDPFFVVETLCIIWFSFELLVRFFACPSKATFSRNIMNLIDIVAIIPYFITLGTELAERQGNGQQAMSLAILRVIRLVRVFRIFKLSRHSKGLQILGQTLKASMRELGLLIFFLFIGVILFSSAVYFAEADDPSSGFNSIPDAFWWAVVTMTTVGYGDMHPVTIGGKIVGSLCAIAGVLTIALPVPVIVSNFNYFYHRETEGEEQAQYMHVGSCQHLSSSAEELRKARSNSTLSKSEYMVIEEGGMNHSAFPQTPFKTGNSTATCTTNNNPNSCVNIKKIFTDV
# T1 sequence (P22001 whole entry): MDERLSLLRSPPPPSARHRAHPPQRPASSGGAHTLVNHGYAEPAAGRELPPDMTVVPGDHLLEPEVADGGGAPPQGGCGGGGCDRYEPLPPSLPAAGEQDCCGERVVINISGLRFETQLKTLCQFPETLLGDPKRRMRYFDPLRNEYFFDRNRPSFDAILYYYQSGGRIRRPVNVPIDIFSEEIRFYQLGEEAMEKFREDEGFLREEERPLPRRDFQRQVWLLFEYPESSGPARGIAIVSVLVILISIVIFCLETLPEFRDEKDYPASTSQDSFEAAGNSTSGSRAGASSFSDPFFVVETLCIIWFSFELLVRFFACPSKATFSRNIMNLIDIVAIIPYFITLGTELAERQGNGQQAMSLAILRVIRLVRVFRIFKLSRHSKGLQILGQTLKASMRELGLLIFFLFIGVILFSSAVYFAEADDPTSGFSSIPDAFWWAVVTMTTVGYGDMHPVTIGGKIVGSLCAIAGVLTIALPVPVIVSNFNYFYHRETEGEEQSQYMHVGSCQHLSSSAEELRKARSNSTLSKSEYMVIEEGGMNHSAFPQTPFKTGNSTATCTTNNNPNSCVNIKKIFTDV
SMILES,IC50 [1] [nM],IC50 (Rat whole blood; [2]) [nM],IC50 (Rat whole blood) [nM]
"CCCC[C@H](NC(=O)[C@@H]1CCCN1)C(=O)N[C@@H](CC(=O)O)C(=O)N[C@@H](CCCC)C(=O)N[C@@H](CCCNC(=N)N)C(=O)N[C@H]1CSSC[C@@H]2NC(=O)[C@H](CCCCN)NC(=O)CNC(=O)[C@H](Cc3ccccc3)NC(=O)[C@H]([C@@H](C)CC)NC(=O)[C@@H]3CSSC[C@@H](C(=O)O)NC(=O)[C@@H]4CCCN4C(=O)[C@H](Cc4ccc(O)cc4)NC(=O)[C@@H]4CSSC[C@H](NC(=O)[C@H](CCCCN)NC(=O)[C@H](CCC(N)=O)NC(=O)[C@H](CCCCN)NC(=O)[C@H](CSSC[C@H](NC(=O)[C@H](CCCCN)NC(=O)[C@H](CCCCN)NC(=O)[C@H](CC(N)=O)NC(=O)[C@H](CCCC)NC2=O)C(=O)N[C@@H](CCCCN)C(=O)N4)NC(=O)[C@H](CCC(=O)O)NC(=O)[C@H](C(C)C)NC(=O)[C@H](CO)NC(=O)[C@H](C)NC(=O)[C@H](CO)NC1=O)C(=O)N[C@@H](CC(C)C)C(=O)N[C@@H](CCCCN)C(=O)N[C@@H](C)C(=O)N[C@@H]([C@@H](C)CC)C(=O)NCC(=O)N3 [Compound 88] (H-P[Nle]D[Nle]RCSASVECKQKCLKAIGCIFGKC[Nle]NKKCKCYPC-OH; disulfide 6-27, 12-32, 16-34, 22-37)",0.27,1.1,–
"CCCC[C@H](NC(=O)[C@H](CC(=O)O)NC(=O)[C@H](CCCC)NC(=O)[C@@H](N)CO)C(=O)N[C@@H](CCCNC(=N)N)C(=O)N[C@H]1CSSC[C@@H]2NC(=O)[C@H](CCCCN)NC(=O)CNC(=O)[C@H](Cc3ccccc3)NC(=O)[C@H]([C@@H](C)CC)NC(=O)[C@H](CO)NC(=O)CNC(=O)[C@H]([C@@H](C)CC)NC(=O)[C@H](C)NC(=O)[C@H](CCCCN)NC(=O)[C@H](CC(C)C)NC(=O)[C@@H]3CSSC[C@@H](C(=O)N[C@@H](Cc4ccc(F)cc4)C(=O)N4CCC[C@H]4C(=O)N[C@@H](CCCNC(=N)N)C(N)=O)NC(=O)[C@H](CCCCN)NC(=O)[C@H](CSSC[C@H](NC(=O)[C@H](CCC(=O)O)NC(=O)[C@H](C(C)C)NC(=O)[C@H](CO)NC(=O)[C@H](C)NC(=O)[C@H](CO)NC1=O)C(=O)N[C@@H](CCCCN)C(=O)N[C@@H](CCC(N)=O)C(=O)N[C@@H](CCCCN)C(=O)N3)NC(=O)[C@H](CCCCN)NC(=O)[C@H](CCCCN)NC(=O)[C@H](CC(N)=O)NC(=O)[C@H](CCSC)NC2=O [Compound 91] (H-S[Nle]D[Nle]RCSASVECKQKCLKAIGSIFGKCMNKKCKC[Phe(4-F)]PR-NH2; disulfide 6-27, 12-32, 16-34)",0.1,0.34,≤ 1
"CCCC[C@H](NC(=O)[C@H](CC(=O)O)NC(=O)[C@H](CCCC)NC(=O)[C@@H](N)CO)C(=O)N[C@@H](CCCNC(=N)N)C(=O)N[C@H]1CSSC[C@@H]2NC(=O)[C@H](CCCCN)NC(=O)CNC(=O)[C@H](Cc3ccccc3)NC(=O)[C@H]([C@@H](C)CC)NC(=O)[C@H](CO)NC(=O)CNC(=O)[C@H]([C@@H](C)CC)NC(=O)[C@H](C)NC(=O)[C@H](CCCCN)NC(=O)[C@H](CC(C)C)NC(=O)[C@@H]3CSSC[C@@H](C(=O)N[C@@H](Cc4ccc([N+](=O)[O-])cc4)C(=O)N4CCC[C@H]4C(=O)N[C@@H](CCCNC(=N)N)C(N)=O)NC(=O)[C@H](CCCCN)NC(=O)[C@H](CSSC[C@H](NC(=O)[C@H](CCC(=O)O)NC(=O)[C@H](C(C)C)NC(=O)[C@H](CO)NC(=O)[C@H](C)NC(=O)[C@H](CO)NC1=O)C(=O)N[C@@H](CCCCN)C(=O)N[C@@H](CCC(N)=O)C(=O)N[C@@H](CCCCN)C(=O)N3)NC(=O)[C@H](CCCCN)NC(=O)[C@H](CCCCN)NC(=O)[C@H](CC(N)=O)NC(=O)[C@H](CCSC)NC2=O [Compound 92] (H-S[Nle]D[Nle]RCSASVECKQKCLKAIGSIFGKCMNKKCKC[Phe(4-NO2)]PR-NH2; disulfide 6-27, 12-32, 16-34)",0.49,1.3,–
"CCCC[C@H](NC(=O)[C@H](CC(=O)O)NC(=O)[C@H](CCCC)NC(=O)[C@@H](N)CO)C(=O)N[C@@H](CCCNC(=N)N)C(=O)N[C@H]1CSSC[C@@H]2NC(=O)[C@H](CCCCN)NC(=O)CNC(=O)[C@H](Cc3ccccc3)NC(=O)[C@H]([C@@H](C)CC)NC(=O)[C@H](CO)NC(=O)CNC(=O)[C@H]([C@@H](C)CC)NC(=O)[C@H](C)NC(=O)[C@H](CCCCN)NC(=O)[C@H](CC(C)C)NC(=O)[C@@H]3CSSC[C@@H](C(=O)N[C@@H](Cc4ccc(C)cc4)C(=O)N4CCC[C@H]4C(=O)N[C@@H](CCCNC(=N)N)C(N)=O)NC(=O)[C@H](CCCCN)NC(=O)[C@H](CSSC[C@H](NC(=O)[C@H](CCC(=O)O)NC(=O)[C@H](C(C)C)NC(=O)[C@H](CO)NC(=O)[C@H](C)NC(=O)[C@H](CO)NC1=O)C(=O)N[C@@H](CCCCN)C(=O)N[C@@H](CCC(N)=O)C(=O)N[C@@H](CCCCN)C(=O)N3)NC(=O)[C@H](CCCCN)NC(=O)[C@H](CCCCN)NC(=O)[C@H](CC(N)=O)NC(=O)[C@H](CCSC)NC2=O [Compound 93] (H-S[Nle]D[Nle]RCSASVECKQKCLKAIGSIFGKCMNKKCKC[Phe(4-Me)]PR-NH2; disulfide 6-27, 12-32, 16-34)",0.13,0.54,–
"CCCC[C@H](NC(=O)[C@@H]1CCCN1)C(=O)N[C@@H](CCC(=O)O)C(=O)N[C@@H](CCCC)C(=O)N[C@@H](CCCNC(=N)N)C(=O)N[C@H]1CSSC[C@@H]2NC(=O)[C@H](CCCCN)NC(=O)CNC(=O)[C@H](Cc3ccccc3)NC(=O)[C@H]([C@@H](C)CC)NC(=O)[C@H](CO)NC(=O)CNC(=O)[C@H]([C@@H](C)CC)NC(=O)[C@H](C)NC(=O)[C@H](CC(C)C)NC(=O)[C@H](CC(C)C)NC(=O)[C@@H]3CSSC[C@@H](C(=O)N[C@@H](Cc4ccc(O)cc4)C(=O)N4CCC[C@H]4C(=O)N[C@@H](CCCNC(=N)N)C(=O)O)NC(=O)[C@H](CCCCN)NC(=O)[C@H](CSSC[C@H](NC(=O)[C@H](CCC(=O)O)NC(=O)[C@H](C(C)C)NC(=O)[C@H](CO)NC(=O)[C@H](C)NC(=O)[C@H](CO)NC1=O)C(=O)N[C@@H](CCCCN)C(=O)N[C@@H](CCC(N)=O)C(=O)N[C@@H](CCCCN)C(=O)N3)NC(=O)[C@H](CCCCN)NC(=O)[C@H](CCCCN)NC(=O)[C@H](CC(N)=O)NC(=O)[C@H](CCCC)NC2=O [Compound 99] (H-P[Nle]E[Nle]RCSASVECKQKCLLAIGSIFGKC[Nle]NKKCKCYPR-OH; disulfide 6-27, 12-32, 16-34)",0.34,0.5,≤ 1
"CCCC[C@@H]1NC(=O)[C@@H]2CSSC[C@H](NC(=O)[C@H](CCCNC(=N)N)NC(=O)[C@H](CCC(=O)O)NC(=O)[C@H](CC(=O)O)NC(=O)[C@@H](NC(=O)[C@@H]3CCCN3)[C@@H](C)CC)C(=O)N[C@@H](CO)C(=O)N[C@@H](C)C(=O)N[C@@H](CO)C(=O)N[C@@H](C(C)C)C(=O)N[C@@H](CCC(=O)O)C(=O)N[C@H]3CSSC[C@H](NC(=O)[C@H](CCCCN)NC(=O)[C@H](CCCCN)NC(=O)[C@H](CC(N)=O)NC1=O)C(=O)N[C@@H](CCCCN)C(=O)N[C@H](C(=O)N[C@@H](Cc1ccc(O)cc1)C(=O)N1CCC[C@H]1C(=O)N[C@@H](CCCNC(=N)N)C(=O)O)CSSC[C@H](NC(=O)[C@H](CCCCN)NC(=O)[C@H](CCC(N)=O)NC(=O)[C@H](CCCCN)NC3=O)C(=O)N[C@@H](CC(C)C)C(=O)N[C@@H](C)C(=O)N[C@@H](C)C(=O)N[C@@H]([C@@H](C)CC)C(=O)NCC(=O)N[C@@H](CO)C(=O)N[C@@H]([C@@H](C)CC)C(=O)N[C@@H](Cc1ccccc1)C(=O)NCC(=O)N[C@@H](CCCCN)C(=O)N2 [Compound 100] (H-PIDERCSASVECKQKCLAAIGSIFGKC[Nle]NKKCKCYPR-OH; disulfide 6-27, 12-32, 16-34)",0.85,0.87,≤ 1
